Experimental data as given in publication PMC8243326, “Data-Driven Ensemble Docking to Map Molecular Interactions of Steroid Analogs with Hepatic Organic Anion Transporting Polypeptides” (Journal of Chemical Information and Modeling, 2021).
Read-outs that look alike come from different tables or passages of the source.

Tests used:
OATP2B1 [1] = target: T1, OATP2B1 (Homo sapiens, UniProt O94956); assay: Pyranine uptake inhibition in A431 cells overexpressing OATP2B1; settings: for fold decrease in activity compared with compound 11: 3-hydroxy and 3-methoxy analogs vs 3-benzyloxy compound 11; for selectivity for OATP2B1 (in words): vs OATP1B1 and OATP1B3
T1 sequence (O94956 1-709): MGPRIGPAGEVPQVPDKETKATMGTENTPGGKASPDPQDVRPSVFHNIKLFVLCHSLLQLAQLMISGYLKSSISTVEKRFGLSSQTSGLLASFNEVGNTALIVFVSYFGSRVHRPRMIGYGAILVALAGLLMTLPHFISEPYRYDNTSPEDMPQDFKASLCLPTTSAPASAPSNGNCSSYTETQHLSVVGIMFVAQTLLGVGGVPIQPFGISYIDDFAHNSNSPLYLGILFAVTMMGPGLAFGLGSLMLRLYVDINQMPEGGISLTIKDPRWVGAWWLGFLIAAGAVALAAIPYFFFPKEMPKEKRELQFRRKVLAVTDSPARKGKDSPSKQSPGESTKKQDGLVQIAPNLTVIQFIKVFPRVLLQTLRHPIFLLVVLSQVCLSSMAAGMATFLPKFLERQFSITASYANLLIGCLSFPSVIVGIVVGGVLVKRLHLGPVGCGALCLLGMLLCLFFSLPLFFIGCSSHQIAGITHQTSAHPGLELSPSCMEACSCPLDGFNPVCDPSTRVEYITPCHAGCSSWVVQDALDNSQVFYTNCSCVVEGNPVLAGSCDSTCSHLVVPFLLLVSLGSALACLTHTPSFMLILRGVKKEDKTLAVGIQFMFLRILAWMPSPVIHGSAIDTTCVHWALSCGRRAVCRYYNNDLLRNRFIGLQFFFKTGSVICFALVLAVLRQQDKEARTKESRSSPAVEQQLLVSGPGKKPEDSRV
Protocol: (§1) Compounds with measured bioactivities (Km, IC50, Ki, and EC50 bioactivity end points or percentage inhibition values) on OATP1B1 (n = 440 compounds), OATP1B3 (n = 936 compounds), or OATP2B1 (n = 173 compounds) were collected from the open domain by utilizing a KNIME workflow, which collects data from five independent data sources as described in Tuerkova et al.[15] […] IC50 values were calculated based on transport inhibition measurements (see below) by Hill1 fit, using the Origin Pro8.6 software (OriginLab Corporation, Northampton, MA, US).
(§2) 20 mM stocks in DMSO were stored for further usage at −20 °C. A431 cells overexpressing OATPs, OATP1B1, OATP1B3, or OATP2B1 or mock transfected controls were generated previously.[60] A431 cells were maintained in DMEM medium (Thermo Fischer Scientific, Waltham, MA, US) supplemented with 10% fetal bovine serum, 2 mM L-glutamine, 100 units/mL penicillin, and 100 μg/mL streptomycin at 37 °C with 5% CO2. […] The uptake of pyranine was measured on microplates based on the method developed by us previously.[60],[61]
(§3) Briefly, 1 day prior to the uptake measurement cells (8 × 10^4 cells/well in 200 μL DMEM) were seeded on 96-well plates. On the following day, the medium was removed, and the cells were washed three times with 200 μL of phosphate-buffered saline (PBS, pH 7.4) and preincubated with 50 μL of uptake buffer (125 mM NaCl, 4.8 mM KCl, 1.2 mM CaCl2, 1.2 mM KH2PO4, 12 mM MgSO4, 25 mM MES (2-(N-morpholino)ethanesulfonic acid, and 5.6 mM glucose, pH 5.5) with or without increasing concentrations of the tested compounds. The reaction was started by the addition of 50 μL of uptake buffer containing pyranine in a final concentration of 10 μM (OATP1B1) or 20 μM (OATP1B3 and OATP2B1). Cells were incubated with the dye at 37 °C for 15 min (OATP1B1 and OATP2B1) or 30 min (OATP1B3), after which the supernatant was removed, and the cells were washed three times with 200 μL of ice-cold PBS. Fluorescence (in 200 μL of PBS/well) was determined in an Enspire plate reader (PerkinElmer, Waltham, MA, Ex/Em = 403/517 nm). OATP-dependent transport was calculated by extracting fluorescence measured in mock transfected cells. Transport activity was calculated based on the fluorescence signal in the absence (100%) of the tested compounds. Experiments were repeated at least three times on cells deriving from different passages.
(§4) IC50 values were calculated by Hill1 fit, using the (OriginLab Corporation, Northampton, MA, US).

OATP1B1 [2] = target: T2, OATP1B1 (Homo sapiens, UniProt Q9Y6L6); assay: Pyranine uptake inhibition in A431 cells overexpressing OATP1B1; settings: for activity on OATP1B1 and OATP1B3 (in words): statement covers both OATP1B1 and OATP1B3
T2 sequence (Q9Y6L6 1-691): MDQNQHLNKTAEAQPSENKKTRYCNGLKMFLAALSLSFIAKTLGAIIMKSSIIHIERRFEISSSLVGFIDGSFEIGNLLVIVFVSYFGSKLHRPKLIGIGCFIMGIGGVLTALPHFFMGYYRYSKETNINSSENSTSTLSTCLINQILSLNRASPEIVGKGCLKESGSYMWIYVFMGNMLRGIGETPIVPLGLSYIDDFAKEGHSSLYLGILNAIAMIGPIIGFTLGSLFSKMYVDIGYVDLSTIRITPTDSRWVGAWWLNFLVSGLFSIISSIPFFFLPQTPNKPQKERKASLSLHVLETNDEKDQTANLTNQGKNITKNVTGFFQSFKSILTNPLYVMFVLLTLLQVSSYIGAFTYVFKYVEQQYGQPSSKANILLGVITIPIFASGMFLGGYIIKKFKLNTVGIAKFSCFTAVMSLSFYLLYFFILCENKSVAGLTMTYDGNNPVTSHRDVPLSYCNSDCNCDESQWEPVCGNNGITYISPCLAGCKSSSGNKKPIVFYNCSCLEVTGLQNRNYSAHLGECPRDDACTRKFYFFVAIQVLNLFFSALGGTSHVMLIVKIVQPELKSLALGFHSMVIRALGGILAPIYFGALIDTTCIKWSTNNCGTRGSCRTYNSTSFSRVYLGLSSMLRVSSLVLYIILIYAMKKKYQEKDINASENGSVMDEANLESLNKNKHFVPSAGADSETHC
Protocol: IC50 values were calculated based on transport inhibition measurements (see below) by Hill1 fit, using the Origin Pro8.6 software (OriginLab Corporation, Northampton, MA, US).
as §2
Briefly, 1 day prior to the uptake measurement cells (8 × 10^4 cells/well in 200 μL DMEM) were seeded on 96-well plates. […] OATP-dependent transport was calculated by extracting fluorescence measured in mock transfected cells. Transport activity was calculated based on the fluorescence signal in the absence (100%) of the tested compounds. Experiments were repeated at least three times on cells deriving from different passages.
as §4

OATP1B3 [3] = target: T3, OATP1B3 (Homo sapiens, UniProt Q9NPD5); assay: Pyranine uptake inhibition in A431 cells overexpressing OATP1B3
T3 sequence (Q9NPD5 1-702): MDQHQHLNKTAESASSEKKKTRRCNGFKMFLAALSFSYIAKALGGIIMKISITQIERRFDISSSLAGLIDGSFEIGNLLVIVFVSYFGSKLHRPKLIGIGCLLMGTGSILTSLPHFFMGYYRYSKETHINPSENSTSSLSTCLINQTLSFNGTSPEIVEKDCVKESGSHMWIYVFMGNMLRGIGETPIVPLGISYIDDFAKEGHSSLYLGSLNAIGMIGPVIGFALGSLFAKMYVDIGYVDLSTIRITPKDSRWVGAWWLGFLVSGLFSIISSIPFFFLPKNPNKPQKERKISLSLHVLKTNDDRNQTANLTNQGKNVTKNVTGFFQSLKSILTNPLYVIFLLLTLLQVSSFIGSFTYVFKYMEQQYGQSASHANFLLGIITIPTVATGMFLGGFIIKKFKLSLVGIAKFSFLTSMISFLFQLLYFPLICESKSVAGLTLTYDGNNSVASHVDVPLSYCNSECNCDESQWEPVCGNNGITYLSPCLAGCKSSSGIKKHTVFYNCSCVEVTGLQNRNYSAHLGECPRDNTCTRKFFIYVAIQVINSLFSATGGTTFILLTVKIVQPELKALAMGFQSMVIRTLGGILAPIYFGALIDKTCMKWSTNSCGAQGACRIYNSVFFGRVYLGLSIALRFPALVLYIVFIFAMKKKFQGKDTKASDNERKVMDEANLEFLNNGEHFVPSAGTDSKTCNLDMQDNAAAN
Protocol: as §1, §2, §3, §4

OATP1B1 [4] = target: T2, OATP1B1; settings: cited from earlier work; for median bioactivity value: OATP1B1, public data sources
OATP2B1 [5] = target: T1, OATP2B1; parameters: method as in earlier work; settings: Figure S14; public data sources; cited from earlier work
OATP1B3 [6] = target: T3, OATP1B3; parameters: expressed in transfected cells; host or cells: A431 cells; settings: public data sources; cited from earlier work

Structure (SMILES) | IC50 (OATP2B1 [1]) | IC50 (OATP1B1 [2]) | activity on OATP1B1 and OATP1B3 (in words) (OATP1B1 [2]) | IC50 (OATP1B3 [3]) | also measured
CCOP(=O)(OCC)c1cc2c(cc1OC)CCC1C2CC[C@@]2(C)C(=O)CCC12 (stereo partly drawn) [Compound 15] | 2960 nM | 10.1 µM | rather inactive | 9.5 µM | fold decrease in activity compared with compound 11 (OATP2B1 [1]; OATP2B1): approximately 17 fold
C[C@]12CC[C@@H]3c4ccc(OS(=O)(=O)O)cc4CC[C@H]3[C@@H]1CCC2=O [E-3-S, estrone-3-sulfate] |  |  |  |  | median bioactivity value (OATP1B1 [4]): 0.450 µM; transporter selectivity (in words) (OATP1B1 [4]; OATP1B1 vs OATP1B3, known from literature): OATP1B1 selective; IC50 (OATP2B1 [5]): 10 µM
C[C@@]12CCC3c4ccc(O)c(I)c4CCC3C1CCC2=O (stereo partly drawn) [Compound 8] | 3580 nM | 9.28 µM | weak to borderline inhibitory activity | 8.28 µM | 
C[C@@]12CCC3c4cc(Cl)c(O)cc4CCC3C1CCC2=O (stereo partly drawn) [Compound 9] | 900 nM | > 50 µM |  | > 50 µM | selectivity for OATP2B1 (in words) (OATP2B1 [1]): selective
C[C@@]12CCC3c4ccc(O)cc4CCC3C1CCC2=O (stereo partly drawn) [Compound 1, 13α-estrone] | > 50000 nM |  |  | > 50 µM | 
C[C@@]12CCC3c4cc(Br)c(O)cc4CCC3C1CCC2=O (stereo partly drawn) [Compound 5] | 1190 nM | > 50 µM |  | > 50 µM | selectivity for OATP2B1 (in words) (OATP2B1 [1]): selective
CCOP(=O)(OCC)c1c(OCc2ccccc2)ccc2c1CCC1C2CC[C@@]2(C)C(=O)CCC12 (stereo partly drawn) [Compound 12] | 750 nM | 3.22 µM | highly active | 2.49 µM | 
C[C@@]12CCC3c4ccc(O)c(Br)c4CCC3C1CCC2=O (stereo partly drawn) [Compound 6] | 2970 nM | 4.07 µM | weak to borderline inhibitory activity | 9.2 µM | 
C[C@@]12CCC3c4cc(I)c(O)cc4CCC3C1CCC2=O (stereo partly drawn) [Compound 7] | 600 nM | 22.5 µM |  | 18.2 µM | selectivity for OATP2B1 (in words) (OATP2B1 [1]): selective
C[C@@]12CCC3c4ccc(OCc5ccccc5)cc4CCC3C1CCC2=O (stereo partly drawn) [Compound 3] | 7170 nM | > 50 µM |  | > 50 µM | 
CCOP(=O)(OCC)c1c(O)ccc2c1CCC1C2CC[C@@]2(C)C(=O)CCC12 (stereo partly drawn) [Compound 14] | 10200 nM | > 50 µM |  | > 50 µM | 
COC(=O)CC[C@@H](C)[C@H]1CC[C@H]2[C@@H]3[C@H](O)C[C@@H]4C[C@H](O)CC[C@]4(C)[C@H]3C[C@H](O)[C@]12C [cholic acid methyl ester] |  |  |  |  | median bioactivity value (OATP1B1 [4]): 0.20 µM; median bioactivity value (OATP1B3 [6]): 0.13 µM
COc1ccc2c(c1)CCC1C2CC[C@@]2(C)C(=O)CCC12 (stereo partly drawn) [Compound 2] | 5410 nM | > 50 µM |  | > 50 µM | 
C[C@@]12CCC3c4ccc(O)c(Cl)c4CCC3C1CCC2=O (stereo partly drawn) [Compound 10] | 10500 nM | 25 µM |  | > 50 µM | IC50 at 15 min (OATP2B1 [1]; human, pH 5.5): 10.5 µM
COc1cc2c(cc1Br)C1CC[C@@]3(C)C(=O)CCC3C1CC2 (stereo partly drawn) [Compound 4] | 8390 nM | > 50 µM |  | > 50 µM | fold decrease in affinity compared to hydroxyl derivative (compound 5) (OATP2B1 [1]; OATP2B1): 7 fold; selectivity for OATP2B1 (in words) (OATP2B1 [1]): selective
CCOP(=O)(OCC)c1c(OC)ccc2c1CCC1C2CC[C@@]2(C)C(=O)CCC12 (stereo partly drawn) [Compound 16] | 2740 nM | 32.4 µM | rather inactive | 11.8 µM | 
CCOP(=O)(OCC)c1cc2c(cc1O)CCC1C2CC[C@@]2(C)C(=O)CCC12 (stereo partly drawn) [Compound 13] | 3180 nM | 3.79 µM | moderate activity | 5.24 µM | fold decrease in activity compared with compound 11 (OATP2B1 [1]; OATP2B1): approximately 17 fold
C[C@H](CCC(=O)O)[C@H]1CC[C@H]2[C@@H]3CC[C@@H]4C[C@H](O)CC[C@]4(C)[C@H]3CC[C@]12C [lithocholate] |  |  |  |  | median bioactivity value (OATP1B1 [4]): 0.918 µM; median bioactivity value (OATP1B3 [6]): 6.807 µM
CCOP(=O)(OCC)c1cc2c(cc1OCc1ccccc1)CCC1C2CC[C@@]2(C)C(=O)CCC12 (stereo partly drawn) [Compound 11] | 180 nM | 0.76 µM | highly active | 2.18 µM | 
